# Measured values: PMC8284461, “Piperidine-4-Carboxamides Target DNA Gyrase in Mycobacterium abscessus” (Antimicrobial Agents and Chemotherapy, 2021)
# Where two headings read alike, the source gives them in different places.
# How the values were obtained:
# [1] = test system: M. abscessus subsp. abscessus ATCC 19977; experiment: MIC, broth microdilution; assay type: cell-based, Mycobacterium abscessus; details: Mycobacteroides abscessus, ATCC19977, 72 h; abscessus ATCC 19977 wild type; 90% growth inhibition, 3 days
# Description: (§1) MIC was determined using the broth microdilution method in 96-well plates as described previously ([47]). Briefly, a 10-point 2-fold serial dilution of compounds was performed in 96-well plates (Costar 3370; Corning, USA) starting at twice the desired highest concentration. […] One hundred microliters of the bacterial suspension was seeded onto the 96-well plates containing 100 μl of the serially diluted compounds to give a final volume of 200 μl in each well with the final OD600 of 0.005. The plates were sealed with parafilm, placed onto wet paper towels in a lock-lock box and incubated for 3 days at 37°C with orbital shaking at 90 rpm. […] Absorbance values at day 3 were subtracted from the day 0 readout. Percent growth inhibition was calculated by dividing the absolute absorbance value of treated cells with untreated control and multiplying by 100. CLR was included in all MIC experiments as a positive control to monitor assay reproducibility. MIC was defined as 90% of growth inhibition relative to untreated controls.
# [2] = test system: M. abscessus subsp. abscessus K21; experiment: MIC, broth microdilution; assay type: cell-based, Mycobacterium abscessus; details: Mycobacteroides abscessus, 72 h, 90% growth inhibition, 3 days
# Description: as §1
# [3] = test system: M. abscessus subsp. abscessus M404; experiment: MIC, broth microdilution; assay type: cell-based, Mycobacterium abscessus; details: Mycobacteroides abscessus, 72 h, 90% growth inhibition, 3 days
# Description: as §1
# [4] = test system: M. abscessus subsp. massiliense CCUG 48898T; experiment: MIC, broth microdilution; assay type: cell-based, Mycobacterium abscessus; details: Mycobacteroides abscessus, 72 h, 90% growth inhibition, 3 days
# Description: as §1
# [5] = test system: M. abscessus subsp. abscessus Bamboo 844^r-2 (GyrA D91N); experiment: MIC, resistant mutant; assay type: cell-based, Mycobacterium abscessus; details: Mycobacteroides abscessus
# [6] = biological target: GyrA D91N mutant recombinant M. abscessus DNA gyrase (Mycobacteroides abscessus, UniProt B1ME45+B1ME58, D91N); assay type: biochemical, Mycobacterium abscessus; details: GyrA D91N mutant DNA gyrase, up to 50 μM
# Chain of GyrA D91N mutant recombinant M. abscessus DNA gyrase (B1ME58 2-839, stated change not applied): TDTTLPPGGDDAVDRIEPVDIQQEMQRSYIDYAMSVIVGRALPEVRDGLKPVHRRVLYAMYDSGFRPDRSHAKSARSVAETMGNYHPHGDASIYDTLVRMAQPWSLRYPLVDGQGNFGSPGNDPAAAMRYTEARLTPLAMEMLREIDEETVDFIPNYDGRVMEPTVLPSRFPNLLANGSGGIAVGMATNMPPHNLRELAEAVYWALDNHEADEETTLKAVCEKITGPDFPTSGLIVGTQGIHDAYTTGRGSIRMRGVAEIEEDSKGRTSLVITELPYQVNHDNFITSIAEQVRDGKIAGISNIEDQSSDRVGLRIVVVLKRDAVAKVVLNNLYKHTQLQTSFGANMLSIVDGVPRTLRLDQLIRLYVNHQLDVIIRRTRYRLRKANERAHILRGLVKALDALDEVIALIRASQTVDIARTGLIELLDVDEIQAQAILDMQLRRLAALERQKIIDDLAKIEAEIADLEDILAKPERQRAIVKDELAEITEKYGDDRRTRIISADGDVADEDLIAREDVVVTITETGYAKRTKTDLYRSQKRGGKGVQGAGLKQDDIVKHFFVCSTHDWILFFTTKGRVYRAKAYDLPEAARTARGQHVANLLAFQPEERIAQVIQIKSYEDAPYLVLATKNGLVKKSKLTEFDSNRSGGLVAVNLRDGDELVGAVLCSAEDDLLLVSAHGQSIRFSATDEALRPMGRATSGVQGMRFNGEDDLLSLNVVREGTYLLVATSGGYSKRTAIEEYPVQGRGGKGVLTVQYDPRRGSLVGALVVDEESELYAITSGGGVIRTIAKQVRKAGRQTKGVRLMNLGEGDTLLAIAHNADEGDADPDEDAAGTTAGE
# Chain of GyrA D91N mutant recombinant M. abscessus DNA gyrase (B1ME45 2-675, stated change not applied): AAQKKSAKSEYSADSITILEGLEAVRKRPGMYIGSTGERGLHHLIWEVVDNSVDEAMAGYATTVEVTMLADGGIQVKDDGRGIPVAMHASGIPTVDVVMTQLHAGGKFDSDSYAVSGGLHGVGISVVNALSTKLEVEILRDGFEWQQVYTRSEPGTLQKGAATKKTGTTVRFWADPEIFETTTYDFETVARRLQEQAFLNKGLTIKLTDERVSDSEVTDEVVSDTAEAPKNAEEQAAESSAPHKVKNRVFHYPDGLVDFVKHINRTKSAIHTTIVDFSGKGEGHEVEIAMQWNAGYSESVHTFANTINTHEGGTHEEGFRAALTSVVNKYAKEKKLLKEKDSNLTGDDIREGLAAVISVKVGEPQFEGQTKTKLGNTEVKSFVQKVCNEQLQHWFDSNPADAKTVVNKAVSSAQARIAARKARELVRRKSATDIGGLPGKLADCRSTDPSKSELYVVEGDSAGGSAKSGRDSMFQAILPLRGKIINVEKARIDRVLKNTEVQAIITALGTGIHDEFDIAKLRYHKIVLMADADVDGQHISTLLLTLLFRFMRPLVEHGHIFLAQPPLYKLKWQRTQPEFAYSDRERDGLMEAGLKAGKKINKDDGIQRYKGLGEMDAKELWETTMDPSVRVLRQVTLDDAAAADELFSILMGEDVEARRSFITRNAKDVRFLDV
# Kinetic solubility = assay type: physicochemical
# Description: (§2) Kinetic solubility, parallel artificial membrane permeability assay (PAMPA) permeability, and stability in the mouse liver microsome assay were performed by BioDuro (Shanghai, China) according to standard protocols.
# [7] = Parallel artificial membrane permeability assay (PAMPA); assay type: in vitro ADME
# Description: as §2
# [8] = In vivo mouse pharmacokinetics; details: CD-1 mice
# Description: All animal experiments were approved by the Center for Discovery and Innovation, Institutional Animal Care and Use Committee, and were conducted in compliance with their guidelines. Female CD-1 mice were weighed and received a single dose of […] via the intravenous (i.v.) (5 mg/kg of body weight), oral (p.o.) (25 mg/kg), or subcutaneous (s.c.) (25 mg/kg) dosing route. The compound was formulated as a solution in 5% N,N-dimethylacetamide (DMA)/95% Milli-Q water vehicle. Blood samples were serially collected via the tail snip from each individual mouse at 0.017, 0.25, 1, 3, 5, and 8 h postdose following i.v. dosing and at 0.5, 1, 3, and 5 h postdose following p.o. and s.c. dosing. Blood (50 μl) was collected in capillary Microvette K2EDTA tubes (16.444.100; Sarstedt, Inc.) and kept on ice prior to centrifugation at 1,500 × g for 5 min. The supernatant (plasma) was transferred into a 96-well plate and stored at −80°C.
# Liquid chromatography-tandem mass spectrometry (LC-MS/MS) analysis was performed on a Sciex Applied Biosystems Qtrap 6500+ triple-quadrupole mass spectrometer coupled to a Shimadzu Nexera 2 high-pressure liquid chromatography (HPLC) system to quantify each drug in plasma. Neat 1 mg/ml DMSO stocks for 844-TFM were serial diluted in 50:50 acetonitrile (ACN)/water to create standard curves and quality control (QC) spiking solutions. Standards and QCs were created by adding 10 μl of spiking solutions to 90 μl of drug-free plasma (CD-1 K2EDTA Mouse; Bioreclamation IVT). Twenty microliters of control, standard, QC, or study sample were added to 200 μl of ACN/methanol (MeOH) 50:50 protein precipitation solvent containing internal standard (10 ng/ml verapamil). Extracts were vortexed for 5 min and centrifuged at 4,000 rpm for 5 min. One hundred microliters of supernatant was transferred for HPLC-MS/MS analysis and diluted with 100 μl of Milli-Q deionized water.
# Chromatography was performed on an Agilent Zorbax SB-C8 column (2.1 × 30 mm; particle size, 3.5 μm) using a reverse-phase gradient. Milli-Q deionized water with 0.1% formic acid was used for the aqueous mobile phase and 0.1% formic acid in ACN for the organic mobile phase. Multiple-reaction monitoring of precursor/product transitions in electrospray positive-ionization mode was used to quantify the analytes. The following multiple reaction monitoring (MRM) transitions were used for 844-TFM (459.10/133.00) and verapamil (455.4/165.2). Sample analysis was accepted if the concentrations of the quality control samples were within 20% of the nominal concentration. Data processing was performed using Analyst software (version 1.6.2; Applied Biosystems Sciex).
# Plasma stability [9] = assay type: in vitro ADME, New Zealand white rabbits; details: rabbit plasma, 37°C, 1 μg/ml
# Description: (§3) The plasma stability assays were carried out using plasma from female CD-1 mice, New Zealand white rabbits, rhesus monkeys, and humans containing K2EDTA anticoagulant (Bioreclamation). Stability samples consisted of 5 μl of stock compound solution in 50:50 ACN/water and 95 μl of plasma to a final concentration of 1 μg/ml. The samples were incubated at 37°C with shaking; 10 μl of plasma was removed at each time point and combined with 100 μl of ACN/methanol 50:50 protein precipitation solvent containing internal standard (10 ng/ml verapamil). Chromatography for metabolite identification was performed the same as specified for pharmacokinetic sample analysis. Full scan total ion chromatograms (TIC) of plasma extracts were acquired using a Q Exactive high-resolution mass spectrometer (QE-HRMS) at 70,000 mass resolution. Thermo Fisher Compound Discoverer software was used to assist in identifying the 844-TFM metabolites from the QE-HRMS TIC mass spectrum. Figure S2 in the supplemental material illustrates the extracted ion chromatograms (XIC) of 844-TFM and the metabolites using 5 ppm mass accuracy before and after 12 h of incubation in mouse plasma.
# Plasma stability [10] = assay type: in vitro ADME, rhesus monkeys; details: monkey plasma, 37°C, 1 μg/ml
# Description: as §3
# [11] = female, mouse, plasma, iv, i.v. 5 mg/kg, average (SD)
structure (smiles),measurement,setting,value
COc1ccc2nccc(NC(=O)C3CCN(CCc4ccc(C(F)(F)F)cc4)CC3)c2n1 [844-TFM],MIC,[1],1.5 µM
same,MIC,[2],3.5 µM
same,MIC,[3],1.6 µM
same,MIC,[4],2 µM
same,MIC,[5],> 100 µM
same,effect on supercoiling activity,[6],No inhibition
same,solubility,Kinetic solubility; pH 7.4,390 µM
same,solubility,"Kinetic solubility; simulated gastric fluid, pH 2",446 µM
same,Papp,"[7]; PAMPA, pH 7.4, read-out: PAMPA Mean Pe",2 ×10⁻⁶ cm/s
same,PAMPA logPe,[7]; pH 7.4,−5.7
same,PAMPA logPe,[7]; −5.0 cm/s considered border between high and low permeability,−5.7 cm/s
same,V,"[8]; i.v. 5 mg/kg, average (SD)",0.811 (0.221) liter/kg
same,clearance,[8]; [11],10.6 mL/min/kg
same,k el,[8]; [11],0.000192 s⁻¹
same,AUC,"[8]; female, mouse, plasma, iv, i.v. 5 mg/kg, average (SD), read-out: AUC i.v.",5630 ng·h/mL
same,half-life,"[8]; female, mouse, plasma, iv, i.v. 5 mg/kg, average (SD), read-out: elimination half-life (converted)",1.03 h
same,bioavailability,"[8]; female, mouse, plasma, oral, p.o. 25 mg/kg vs i.v. 5 mg/kg, read-out: p.o. bioavailability",0.05 to 0.2%
same,bioavailability,"[8]; female, mouse, plasma, po, p.o. 25 mg/kg vs i.v. 5 mg/kg, read-out: p.o. bioavailability",0.15%
same,AUC,"[8]; female, mouse, plasma, po, p.o. 25 mg/kg, average (SD), read-out: AUC p.o.",58 ng·h/mL
same,bioavailability,"[8]; female, mouse, plasma, sc, s.c. 25 mg/kg vs i.v. 5 mg/kg, read-out: s.c. bioavailability",3%
same,AUC,"[8]; female, mouse, plasma, sc, s.c. 25 mg/kg, average (SD), read-out: AUC s.c.",1170 ng·h/mL
same,remaining after 24 h,Plasma stability [9],approximately 80%
same,remaining after 24 h,Plasma stability [10],approximately 80%
